Measurements taken from patent EP0731697B1, “SSI TYRPHOSTINS AND PHARMACEUTICAL COMPOSITIONS” (priority 1993, dated 1995).
Like-named read-outs stand apart in the source and are kept apart here.

Key:
mice [1] = tested on: mice
EGF receptor = EGF receptor (Homo sapiens, UniProt P00533); settings: even at concentrations above 100 uM; cited from earlier work
mice [2] = test: TNF-α induced lethal toxicity in actinomycin D treated mice; type: in vivo; settings: actinimycin D:TNF 20 to 2.5 and 15 to 1.0, SSI 3, 400 mg/mouse i.p. 2 hr prior to TNF, 5 mice
Method: The effect of SSI 3 on lethal toxicity in mice induced by TNF-α was investigated. Mice are relatively resistant to TNF-α, when applied as a single agent. Pretreatment of mice with actinomycin D renders them extremely sensitive to TNF. (Wallach et al., 140 J. Immun. 2994, 1988). SSI 3 delayed TNF-α induced lethal toxicity in actinomycin D treated mice by approximately 15 hours at two ratios of actinimycin D:TNF (20 to 2.5 and 15 to 1.0). Mice were injected, i.p., with TNF at 0 time. SSI 3, […]/mouse was administered (i.p.) 2 hr, and actinomycin D (ACT.D) was given (i.p.) 30 min prior to TNF injection. Each experimental group contained 5 mice. Injection of actinomycin D alone causes death in 2 out of 5 animals after 120 hours and 3 out of 5 after 144 hours.

TNF-α = test: LPS induced increase in serum TNF-α levels in mice; type: in vivo; settings: for serum TNF-α levels: 400 ug/mouse i.p. 2 hrs prior to LPS, bled after 2 hours
Source text: TNF-α was implicated to mediate many of the toxic effect of LPS. For example, the effect of SSI 3 on serum TNF-α levels in mice which had been treated with LPS was investigated. LPS induced a rapid increase in serum TNF-α levels. […] […] The bioassay gave somewhat higher levels compared to the ELISA. This finding may indicate that the serum from LPS-treated mice contained in addition to TNF-α, other cytotoxic factors.
The amount of TNF-α was quantitated by assessing the extent of killing of the TNF-α sensitive cell line (A9) essentially as described by Ruff and Gilford, G. E. J. Immunol. 125, 1671-1677, (1980). Briefly, mouse A9 fibroblasts were plated in 96-well flat-bottom micro-titer plates at 30,000 cells /0.1 ml to establish a dense monolayer. After incubation for 24 hr at 37 C in a humidified 5% CO2 atmosphere, cycloheximide was added to a final concentration of 50 ug/ml and 100 ul of serially diluted test samples were added to the wells. After incubation for additional 18 hr the supernatants were carefully aspirated, the monolayer were washed twice with PBS and 200 ul of neutral red solution (0.02%) was added. After incubation for 2 hr, cells were washed and the dye that had been absorbed by the live cells was extracted using 200 ul of 50% ethanol. The concentration of the dye was determined by an ELISA autoreader using a 550 nm filter. Murine TNF-α ELISA kit from ENDOGEN Inc., was used for quancitation of murine TNF-α.

[3] = tested on: murine peritoneal macrophages; test: NO2- production by periodate-activated murine peritoneal macrophages; type: cell-based
Method: Nitrite (NO2-) levels were determined in supernatants at the time indicated, as described herein. (Table 5) Values are expressed as means of triplicate cultures. […] Two additional experiments yielded similar results.
NO2- the product of NO oxidation is used to determine NO produced. Nitrite concentration in supernatants of macrophages was measured by a microplate assay method. 100 ul aliquots of supernatants were incubated with an equal volume of Griess reagent (1% sulfanilamide/O.1% naphthylethylene diamine dihydrochloride/2.5% H3PO4) at room temperature for 10 min. The absorbance at 550nm was determined in a microplate reader. Sodium nitrite was used as a standard.
Mice were injected i.p. with 1 ml sodium periodate (5mM). Three to 4 days later, macrophages were washed from the peritoneal cavity with PBS. After centrifugation at 170g for 10 min at […], the cell pellet was resuspended in RPMI 1640 containing 10% heat-inactivated new born calf serum. Adherent macrophage monolayers were obtained by plating the cells in 96-well plastic trays at 4x10^5 cells/well for 2 hr at 37°C in 5% CO2/air. Nonadherent cells were removed by suction and complete medium was added. […]

[4] = tested on: Murine fibroblastic cells (A9)
Method: Tyrphostins at different concentration were added 2 hr prior to TNF. After 24 hrs cells viability was determined by vital staining using neutral red.
Recombinant human TNFα is added to a mouse fibroblastic cell line (A9), cultured in the presence of cyclohexamine and cell viability is monitored after 20 hours. […] The percentage of live cells was measured from 2 hours prior to administration until 4 hours after administration for a control and for TNF at concentrations of 0.2 ng/ml, 0.05 ng/ml, and 1.0 ng/ml.

mice [5] = test: LPS-induced lethal toxicity in mice
granulocytes = test: LPS-induced granulocyte accumulation in lungs and blood leukocyte changes; type: in vivo, Mouse
Source text: As shown, tyrphostins exert a dramatic protective effect against LPS-induced lethal toxicity. Of the effects studied, only LPS-induced accumulation of granulocytes in the lungs and alteration in blood lymphocyte and granulocytes were not affected by SSI 3. […] The indication is therefore that tyrphostins are effective in preventing septic shock following Gram-negative sepsis, experimentally or clinically.
Mouse blood leukocyte count and differential analysis were done using Cell-Dyn 1600, Hematology Analyzer (Sequoia Turner Corporation, U.S.A).

EGF receptor, sequence (P00533 25-1210): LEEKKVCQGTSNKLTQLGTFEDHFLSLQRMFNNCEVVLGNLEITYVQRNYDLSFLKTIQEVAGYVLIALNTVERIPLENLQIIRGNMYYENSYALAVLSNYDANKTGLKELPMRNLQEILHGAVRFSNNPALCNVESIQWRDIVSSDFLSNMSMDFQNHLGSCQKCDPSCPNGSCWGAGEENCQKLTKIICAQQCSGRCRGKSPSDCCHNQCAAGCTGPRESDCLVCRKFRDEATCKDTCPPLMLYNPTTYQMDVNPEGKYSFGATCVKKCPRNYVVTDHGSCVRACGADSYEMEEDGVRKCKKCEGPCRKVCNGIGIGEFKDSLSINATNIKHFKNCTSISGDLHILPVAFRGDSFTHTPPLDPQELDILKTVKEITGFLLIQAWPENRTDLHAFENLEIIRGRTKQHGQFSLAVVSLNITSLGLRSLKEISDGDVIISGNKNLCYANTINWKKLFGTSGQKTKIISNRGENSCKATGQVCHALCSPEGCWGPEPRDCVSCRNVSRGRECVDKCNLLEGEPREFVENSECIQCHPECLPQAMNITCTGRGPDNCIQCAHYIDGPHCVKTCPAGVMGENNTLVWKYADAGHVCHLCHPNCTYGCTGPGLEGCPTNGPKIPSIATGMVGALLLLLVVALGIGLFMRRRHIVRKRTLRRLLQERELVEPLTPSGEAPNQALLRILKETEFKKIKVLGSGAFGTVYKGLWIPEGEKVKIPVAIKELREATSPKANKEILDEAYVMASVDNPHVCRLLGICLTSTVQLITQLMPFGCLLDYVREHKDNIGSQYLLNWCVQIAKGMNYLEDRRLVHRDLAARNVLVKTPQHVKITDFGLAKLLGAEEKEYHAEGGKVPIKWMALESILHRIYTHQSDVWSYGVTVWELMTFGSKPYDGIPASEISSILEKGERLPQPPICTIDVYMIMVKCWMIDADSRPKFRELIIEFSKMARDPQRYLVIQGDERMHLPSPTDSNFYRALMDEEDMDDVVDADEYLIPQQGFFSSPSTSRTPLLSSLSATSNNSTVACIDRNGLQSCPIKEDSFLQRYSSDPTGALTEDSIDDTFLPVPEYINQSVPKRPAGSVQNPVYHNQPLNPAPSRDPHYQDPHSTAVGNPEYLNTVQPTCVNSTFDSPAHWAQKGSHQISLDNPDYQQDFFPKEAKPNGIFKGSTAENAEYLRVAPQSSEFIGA

Structure (SMILES): N#CC(C#N)=Cc1ccc([N+](=O)[O-])c(O)c1 [SSI 3]
- mice survived (mice [1]; 200 ug/mouse, LPS 1.5 mg/mouse): 3 out of 5 mice
- mice (still alive) (mice [1]; 12 h): 20 mice
- mice (still alive) (mice [1]; 36 h): 18 mice
- mice (still alive) (mice [1]; 60 h): 18 mice
- effect on EGF receptor (EGF receptor): no effect
- delay of TNF-α induced lethal toxicity (mice [2]): approximately 15 hours
- serum TNF-α levels (TNF-α; higher of two printed values, presumably bioassay, LPS alone 14): 4 ng/mL
- serum TNF-α levels (TNF-α; lower of two printed values, presumably ELISA, LPS alone 7): 3 ng/mL
- Serum TNF-α (TNF-α; LPS 200 µg/mouse, AG 300 µg/mouse 2 hrs prior to LPS, 1hr, mean (two single values)): 2.8 (1.2, 4.4) ng/ml
- Serum TNF-α (TNF-α; LPS 200 µg/mouse, AG 300 µg/mouse 2 hrs prior to LPS, 2hr, mean (two single values)): 3.6 (2.7, 4.5) ng/ml
- Serum TNF-α (TNF-α; no LPS (-), AG 300 µg/mouse, 1hr): 16.3 ng/mL
- LPS induced NO production ([3]; 50 um, added 2 hours prior to LPS, 24 hours): markedly inhibit
- NO production ([3]; 50 um, from an initial level of 70 uM (no LPS), 24 hours): ~30 µM
- NO production ([3]; 50 um, from an initial level of 40 (10 ug/ml of LPS), 24 hours): approximately 20 uM
- NO2- production in unstimulated and LPS-stimulated periodate-activated murine macrophages ([3]; LPS (10 mg/ml)): effectively inhibited
- NO2- Production by Macrophages ([3]; SSI 20 uM, LPS 10 ug, 1 DAY): 30,2 µg
- NO2- Production by Macrophages ([3]; SSI 20 uM, LPS 10 ug, 2 DAY): 91 µg
- NO2- Production by Macrophages ([3]; SSI 20 uM, LPS 10 ug, 3 DAY): 90,1 µg
- NO2- Production by Macrophages ([3]; SSI 20 uM, no LPS, 1 DAY): 11,8 µg
- NO2- Production by Macrophages ([3]; SSI 20 uM, no LPS, 2 DAY): 17,5 µg
- NO2- Production by Macrophages ([3]; SSI 20 uM, no LPS, 3 DAY): 7,5 µg
- NO2- Production by Macrophages ([3]; SSI 50uM, LPS 10 ug, 1 DAY): 6,1 µg
- NO2- Production by Macrophages ([3]; SSI 50uM, LPS 10 ug, 2 DAY): 31,4 µg
- NO2- Production by Macrophages ([3]; SSI 50uM, LPS 10 ug, 3 DAY): 19,2 µg
- NO2- Production by Macrophages ([3]; SSI 50 uM, no LPS, 1 DAY): 5 µg
- NO2- Production by Macrophages ([3]; SSI 50 uM, no LPS, 2 DAY): 8,6 µg
- NO2- Production by Macrophages ([3]; SSI 50 uM, no LPS, 3 DAY): 4,8 µg
- blocking TNF-α induced cytotoxicity in vitro [4]: active
- TNF-α induced cytotoxicity, in vitro ([4]; A9 cells, 24 hours with TNF, cyclohexamide 50 ug/ml, tyrphostins added 2 hr prior to TNF, neutral red): reduced
- TNF toxicity (percentage of live cells) ([4]; SSI 3 50 uM, SSI 16 2 uM, SSI 17 2 and 10 uM, A9 cells with cyclohexamine, viability after 20 hours, TNF 0.2, 0.05 and 1.0 ng/ml): prevent TNF toxicity to different degrees
- extent of lethality (mice [5]; 400 ug/mouse i.p. two hrs prior to LPS 1.5 mg/mouse, within 5 days, 2 mice out of 20, LPS alone 95%): 10%
- minimal dose that provided essentially full protection against LPS induced lethal toxicity (mice [5]; LPS 1.5 mg/mouse, administered 2 hours prior to LPS): 400 ug/mouse
- protective effect on the LPS-induced lethal toxicity (mice [5]; administered 2 hours after LPS): essentially no protective effect
- preventing the lethal toxicity (mice [5]; administered at the time of LPS treatment, compared with 2 hr prior to LPS): less effective
- protection against LPS induced lethal toxicity (mice [5]; doses of 100 and 200 ug/mouse, 5 mice over 6 days): partial protection
- alteration in blood lymphocyte and granulocytes (granulocytes; LPS-induced): not affected
- LPS-induced accumulation of granulocytes in the lungs (granulocytes; mouse, in vivo): not affected
